Data reported in patent publication US12589143B2, “Human anti-PD-L1 peptide vaccines and methods of their use” (priority 2019, dated 2026).
Values joined by “and” are separate entries in the source; they are usually repeats but may differ in a detail not shown here. Equal values may be shown once. Where no end group is shown, it is not given here.

Test system: MVF-PD-L1 peptide immunogen
Experiment: Immunogenicity in Balb/c mice, experiment 1 (CT26 WT): ELISA of sera vs each MVF-PD-L1 peptide immunogen
Assay type: in vivo
Conditions: for Immunogenicity (titers) 1′ Conc. 1:: Balb/c mice
Protocol: Immunogenicity of MVF-PD-L1 B-cell epitopes. New Zealand White rabbits were immunized with 1 mg of each MVF-peptide immunogens dissolved in dd H2O emulsified (1:1) in Montanide ISA 720 vehicle (Seppic) with 333 μg of N-acetylglucosamine-3yl-acetyl-1-alanyl-d-isoglutamine (nor-MDP). Rabbits were boosted with the same doses at 3-week's intervals. Blood was collected via the central auricular artery in rabbits. Blood was collected weekly (1Y+3, 2Y+1, 2Y+2,2Y+3, 3Y+1, 3Y+2 and sera tested for antibody titers by ELISA using the immunogens MVF-PD-L1 peptides. Sera (terminal) from rabbit (3Y+3) immunized with MVF-PD-1 peptide immunogens were tested individually versus the immunogen by ELISA. 200 ng/well peptide were used in duplicates to coat the ELISA plates. Titers are defined as the highest dilution of sera with an absorbance value of 0.2 after subtracting the blank.
FIGS. 5A, 5B, 5C, and 5D show the experimental scheme to test the immunization with PD-L1 in Balb/c mice. […] Balb/c mice 6-8 weeks old, were immunized with MVF-peptide immunogens emulsified in ISA 720 with nor-MDP three times and three weeks apart. Mice were immunized with MVF-PD-L1 vaccine constructs [PD-L1(36-53), PD-L1(50-67), PD-L1(95-112), PD-L1(130-147)] prior to tumor challenge. Blood was collected weekly and sera tested for antibody titers by ELISA. Two weeks after the third immunization (3Y), the mice were engrafted with CT26 WT tumor cells 10^5 per mouse Control mice were treated twice weekly with PBS as negative control and twice weekly with anti-mPD-L1 mAb (10F.9G2) as positive control starting 2 days after tumor challenge. Tumor growths were observed twice weekly and measured by calipers.
Immunogenicity of MVF-PD-L1 peptides in BALB/c mice immunized with various peptide constructs. Sera collected weekly were tittered against each individual MVF-PD-L1 peptide immunogen. The Pink bar refers to titers versus PD-L1 130 and the red bar refers to titers versus PD-1 (92-110).
In order to verify the efficacy of the PD-L1 epitope vaccines in vivo in the CT26 carcinoma cell line, Balb/c mice (10 mice/group) were immunized with 100 μg each of MVF-PD-L1 (36-53), MVF-PD-L1 (50-67), MVF-PD-L1 (95-112) and MVF-PD-L1 (130-147) emulsified with nor-MDP and Montanide 720 (1:1 ratio) SCHEME 1A (FIG. 5A). As detailed in SCHEME 1A-D (FIGS. 5A, 5B, 5C, and 5D), mice were immunized 3 times at 3 weeks intervals. […] All PD-L1 epitopes elicited high titers of PD-L1 anti-peptide antibodies by ELISA. […] We also investigated the combination of PD-1(92-110) with PD-L1-130-147.
For each peptide, vaccine antibodies were raised in New Zealand white rabbits, purchased from Charles River Laboratories (Wilmington, MA, USA). Rabbits were immunized with 1 mg of MVF chimeric peptide emulsified in Montanide ISA 720 (Seppic, Paris, France) and boosted 3 times at three week intervals. For mouse experiments, mice, 6-8 weeks old, were immunized with 0.1 mg of peptide emulsified in ISA720 (1:1 ratio). Mice were boosted with the respective doses at 3-week intervals. Blood was then collected and sera were tested for antibody titers. Sera were collected weekly and peptide vaccine antibodies were purified by affinity chromatography using a protein A/G column and the concentration was measured using Spectrophometer. All experiments were performed in accordance with the U.S. Public Health Service Policy on Humane Care and Use of Laboratory animals and approved by the Ohio State University Institutional Animals Care and Use Committee, detailed in the accepted protocol.
6-8 weeks old BALB/c mice (Charles River, Wilmington, MA) were used as standard animal models. Mouse CT26 colon carcinoma cell line was purchased from American Type Culture Collection Cells and were regularly cultured in RPMI1640 medium containing 10% FBS. CT26/HER2 cells were kindly provided by M. Penichet. Vaccines were dissolved in sterile water and emulsified in Montanide ISA 720 (1:1). […]

Sequence: KLLSLIKGVIVHRLEGVEGPSLVTSEHELTCQAEGYPKAE (KLLSLIKGVIVHRLEGVEGPSLVTSEHELTCQAEGYPKAE-NH2) [PD-L1(130)]
- Immunogenicity (titers) 1′ Conc. 1: (bleed 1Y + 3): 12800
- Immunogenicity (titers) 1′ Conc. 1: (bleed 2Y + 1): 12800
- Immunogenicity (titers) 1′ Conc. 1: (bleed 2Y + 2): >12800
- Immunogenicity (titers) 1′ Conc. 1: (bleed 2Y + 3): 128000
- Immunogenicity (titers) 1′ Conc. 1: (bleed 3Y + 1): 128000
- Immunogenicity (titers) 1′ Conc. 1: (bleed 3Y + 2): 64000
- Immunogenicity (titers) 1′ Conc. 1: (bleed 3Y + 3): 64000
- ELISA absorbance of sera (bleed 1Y + 3 (1to100), dilution 100, primary antibody dilution 1:100): 1.571 and 1.562
- ELISA absorbance of sera (bleed 1Y + 3 (1to100), dilution 200, primary antibody dilution 1:200): 1.513 and 1.428
- ELISA absorbance of sera (bleed 1Y + 3 (1to100), dilution 400, primary antibody dilution 1:400): 1.359 and 1.348
- ELISA absorbance of sera (bleed 1Y + 3 (1to100), dilution 800, primary antibody dilution 1:800): 1.151 and 1.105
- ELISA absorbance of sera (bleed 1Y + 3 (1to100), dilution 1,600): 0.888 and 0.871
- ELISA absorbance of sera (bleed 1Y + 3 (1to100), dilution 3,200): 0.580 and 0.528
- ELISA absorbance of sera (bleed 1Y + 3 (1to100), dilution 6,400): 0.348 and 0.314
- ELISA absorbance of sera (bleed 1Y + 3 (1to100), dilution 12,800): 0.204 and 0.196
- ELISA absorbance of sera (bleed 2Y + 1 (1to100), dilution 100, primary antibody dilution 1:100): 1.492 and 1.522
- ELISA absorbance of sera (bleed 2Y + 1 (1to100), dilution 200, primary antibody dilution 1:200): 1.511 and 1.473
- ELISA absorbance of sera (bleed 2Y + 1 (1to100), dilution 400, primary antibody dilution 1:400): 1.450 and 1.355
- ELISA absorbance of sera (bleed 2Y + 1 (1to100), dilution 800, primary antibody dilution 1:800): 1.299 and 1.243
- ELISA absorbance of sera (bleed 2Y + 1 (1to100), dilution 1,600): 1.049 and 0.898
- ELISA absorbance of sera (bleed 2Y + 1 (1to100), dilution 3,200): 0.757 and 0.652
- ELISA absorbance of sera (bleed 2Y + 1 (1to100), dilution 6,400): 0.461 and 0.403
- ELISA absorbance of sera (bleed 2Y + 1 (1to100), dilution 12,800): 0.286 and 0.239
- ELISA absorbance of sera (bleed 2Y + 2 (1to100), dilution 100): 1.483 and 1.544
- ELISA absorbance of sera (bleed 2Y + 2 (1to100), dilution 200): 1.510 and 1.484
- ELISA absorbance of sera (bleed 2Y + 2 (1to100), dilution 400): 1.508 and 1.469
- ELISA absorbance of sera (bleed 2Y + 2 (1to100), dilution 800): 1.407 and 1.322
- ELISA absorbance of sera (bleed 2Y + 2 (1to100), dilution 1,600): 1.252 and 1.192
- ELISA absorbance of sera (bleed 2Y + 2 (1to100), dilution 3,200): 0.977 and 0.852
- ELISA absorbance of sera (bleed 2Y + 2 (1to100), dilution 6,400): 0.704 and 0.577
- ELISA absorbance of sera (bleed 2Y + 3 (1to1k), dilution 100): 1.227 and 1.226
- ELISA absorbance of sera (bleed 2Y + 3 (1to1k), dilution 200): 1.175 and 1.183
- ELISA absorbance of sera (bleed 2Y + 3 (1to1k), dilution 400): 1.164 and 1.091
- ELISA absorbance of sera (bleed 2Y + 3 (1to1k), dilution 800): 1.040 and 0.957
- ELISA absorbance of sera (bleed 2Y + 3 (1to1k), dilution 1,600): 0.846 and 0.797
- ELISA absorbance of sera (bleed 2Y + 3 (1to1k), dilution 3,200): 0.665 and 0.655
- ELISA absorbance of sera (bleed 2Y + 3 (1to1k), dilution 6,400): 0.432 and 0.397
- ELISA absorbance of sera (bleed 3Y + 1 (1to1k), dilution 100): 1.387 and 1.385
- ELISA absorbance of sera (bleed 3Y + 1 (1to1k), dilution 200): 1.327 and 1.336
- ELISA absorbance of sera (bleed 3Y + 1 (1to1k), dilution 400): 1.315 and 1.233
- ELISA absorbance of sera (bleed 3Y + 1 (1to1k), dilution 800): 1.176 and 1.081
- ELISA absorbance of sera (bleed 3Y + 1 (1to1k), dilution 1,600): 0.955 and 0.901
- ELISA absorbance of sera (bleed 3Y + 1 (1to1k), dilution 3,200): 0.752 and 0.740
- ELISA absorbance of sera (bleed 3Y + 1 (1to1k), dilution 6,400): 0.488 and 0.449
- ELISA absorbance of sera (bleed 3Y + 2 (1to1k), dilution 100): 1.562 and 1.601
- ELISA absorbance of sera (bleed 3Y + 2 (1to1k), dilution 200): 1.394 and 1.374
- ELISA absorbance of sera (bleed 3Y + 2 (1to1k), dilution 400): 1.156 and 1.199
- ELISA absorbance of sera (bleed 3Y + 2 (1to1k), dilution 800): 0.867 and 0.876
- ELISA absorbance of sera (bleed 3Y + 2 (1to1k), dilution 1,600): 0.656 and 0.658
- ELISA absorbance of sera (bleed 3Y + 2 (1to1k), dilution 3,200): 0.439 and 0.431
- ELISA absorbance of sera (bleed 3Y + 2 (1to1k), dilution 6,400): 0.286
- ELISA absorbance of sera (bleed 3Y + 3 (1to1k), dilution 100): 1.823 and 1.827
- ELISA absorbance of sera (bleed 3Y + 3 (1to1k), dilution 200): 1.614 and 1.704
- ELISA absorbance of sera (bleed 3Y + 3 (1to1k), dilution 400): 1.411 and 1.516
- ELISA absorbance of sera (bleed 3Y + 3 (1to1k), dilution 800): 1.110 and 1.208
- ELISA absorbance of sera (bleed 3Y + 3 (1to1k), dilution 1,600): 0.752 and 0.880
- ELISA absorbance of sera (bleed 3Y + 3 (1to1k), dilution 3,200): 0.445 and 0.537
- ELISA absorbance of sera (bleed 3Y + 3 (1to1k), dilution 6,400): 0.243
